Measured values published in patent US5807981A (FibroGen Inc., priority 1995, dated 1998).
Residues, ends and D or L forms follow the SMILES beside them.

Target: T1, C-proteinase (Homo sapiens, UniProt P13497)
T1 sequence (P13497 121-986): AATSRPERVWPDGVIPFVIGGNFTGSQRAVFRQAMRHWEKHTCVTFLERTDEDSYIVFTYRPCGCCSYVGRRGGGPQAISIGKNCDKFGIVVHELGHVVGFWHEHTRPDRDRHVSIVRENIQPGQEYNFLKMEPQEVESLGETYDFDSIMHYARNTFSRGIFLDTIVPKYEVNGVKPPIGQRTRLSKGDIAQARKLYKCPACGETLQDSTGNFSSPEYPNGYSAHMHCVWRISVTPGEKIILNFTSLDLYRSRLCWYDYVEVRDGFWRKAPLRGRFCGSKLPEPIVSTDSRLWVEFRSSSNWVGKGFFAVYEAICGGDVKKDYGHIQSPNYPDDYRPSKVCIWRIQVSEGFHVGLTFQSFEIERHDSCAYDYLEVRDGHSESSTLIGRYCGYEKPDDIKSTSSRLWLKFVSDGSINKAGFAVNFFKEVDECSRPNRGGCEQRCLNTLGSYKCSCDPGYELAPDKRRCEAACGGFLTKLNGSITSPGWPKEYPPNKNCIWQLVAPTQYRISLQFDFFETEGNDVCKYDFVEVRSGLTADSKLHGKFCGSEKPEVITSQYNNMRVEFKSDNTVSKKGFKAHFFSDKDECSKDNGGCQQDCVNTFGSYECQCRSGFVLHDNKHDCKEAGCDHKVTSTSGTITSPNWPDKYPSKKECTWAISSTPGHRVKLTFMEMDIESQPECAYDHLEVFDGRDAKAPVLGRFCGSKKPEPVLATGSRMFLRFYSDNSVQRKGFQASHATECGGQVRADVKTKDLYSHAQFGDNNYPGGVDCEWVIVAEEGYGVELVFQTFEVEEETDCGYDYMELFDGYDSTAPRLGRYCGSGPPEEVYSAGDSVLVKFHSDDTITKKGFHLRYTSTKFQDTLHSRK
Test: Cleavage of synthetic procollagen cleavage-site peptides by active C-proteinase
Type: biochemical
Settings: for Cleavability: Table 1, cleavability of peptides resembling the C-proteinase cleavage site of procollagen; for cleavability by C-proteinase: truncated and extended peptides compared with original peptide SEQ ID NO:6
Description: A variety of short peptides comprising five (5) to twelve (12) amino acids was synthesized and tested for cleavage by active C-proteinase.
First, four peptides, each comprising eight (8) amino acids corresponding to the cleavage region of several procollagens were synthesized. See, TABLE 1, SEQ ID NO:3, SEQ ID NO:4, SEQ ID NO:5, and SEQ ID NO:6. All four peptides were examined for cleavability by C-proteinase. […] Indeed, one would expect that recognition of the cleavage site depends on structural requirements which cannot be resembled by only eight (8) amino acids.
Second, a series of peptides was prepared based on the sequence of original peptide SEQ ID NO:6. Specifically, peptides were designed resembling the core of the peptide comprising SEQ ID NO:6, but with truncations of one, two and three amino acids from either side of the cleavage site. A further peptide was synthesized resembling two additional amino acids at both the N-terminus and C-terminus of the original peptide comprising SEQ ID NO:6.
Removing two or more amino acids from either end of the original SEQ ID NO:6 sequence, however, yielded a non-cleavable peptide (SEQ ID NOS:9, 10, 12, 13).

Row | Cleavability | cleavability by C-proteinase | Compound
1 | none | non-cleavable | CSCC[C@H](NC(=O)[C@@H]1CCCN1C(=O)[C@H](CCC(=O)O)NC(=O)[C@H](CC(=O)O)NC(=O)CNC(=O)[C@H](Cc1ccc(O)cc1)NC(C)=O)C(N)=O [SEQ ID NO:12, Ac-YG-DEPM-NH2] (Ac-YGDEPM-NH2)
2 | none | non-cleavable | CSCC[C@H](NC(=O)[C@@H]1CCCN1C(=O)[C@H](CCC(=O)O)NC(=O)[C@H](CC(=O)O)NC(=O)CNC(C)=O)C(N)=O [SEQ ID NO:13, Ac-G-DEPM-NH2] (Ac-GDEPM-NH2)

The next lines start with the compound.

Row | Compound | Cleavability | cleavability by C-proteinase
3 | CC(=O)N1CCC[C@H]1C(=O)N[C@@H](Cc1ccc(O)cc1)C(=O)N[C@@H](Cc1ccc(O)cc1)C(=O)NCC(=O)N[C@@H](CC(=O)O)C(=O)N[C@@H](CCC(=O)O)C(=O)N1CCC[C@H]1C(N)=O [SEQ ID NO:8, Ac-PYYG-DEP-NH2] (Ac-PYYGDEP-NH2) | excellent | did not drastically alter its cleavability
4 | CC(=O)N1CCC[C@H]1C(=O)N[C@@H](Cc1ccc(O)cc1)C(=O)N[C@@H](Cc1ccc(O)cc1)C(=O)NCC(=O)N[C@@H](CC(=O)O)C(=O)N[C@@H](CCC(=O)O)C(N)=O [SEQ ID NO:9, Ac-PYYG-DE-NH2] (Ac-PYYGDE-NH2) | none | non-cleavable
5 | CC(=O)N1CCC[C@H]1C(=O)N[C@@H](Cc1ccc(O)cc1)C(=O)N[C@@H](Cc1ccc(O)cc1)C(=O)NCC(=O)N[C@@H](CC(=O)O)C(N)=O [SEQ ID NO:10, Ac-PYYG-D-NH2] (Ac-PYYGD-NH2) | none | non-cleavable
6 | CSCC[C@H](NC(=O)[C@@H]1CCCN1C(=O)[C@H](CCC(=O)O)NC(=O)[C@H](CC(=O)O)NC(=O)CNC(=O)[C@H](Cc1ccc(O)cc1)NC(=O)[C@H](Cc1ccc(O)cc1)NC(C)=O)C(N)=O [SEQ ID NO:11, Ac-YYG-DEPM-NH2] (Ac-YYGDEPM-NH2) | excellent | did not drastically alter its cleavability
